Results from the NIST ThermoML archive (doi:10.1021/je0498208).

Columns and labels:
[1] = Liquid; for viscosity: 101 kPa; for mass density: 101.3 kPa
[2] = xn = mol fraction of the nth substance listed; conditions: Liquid, x2 = 0; for viscosity: 101 kPa; for mass density: 101.3 kPa

O=CN1CCOCC1 [N-formylmorpholine]
[1]
Conditions	mass density [kg/m3]	viscosity [mPa·s]
298.15 K	1146.62	7.87
303.15 K	1142.26	6.75
313.15 K	1133.53	5.13
323.15 K	1124.82	4.03
333.15 K	1116.11	3.25
343.15 K	1107.39	2.68

O [water] + O=CN1CCOCC1
[2]
Conditions	mass density [kg/m3]	viscosity [mPa·s]
298.15 K	–	0.89
303.15 K	–	0.7976
313.15 K	–	0.6531
323.15 K	988.04	0.547
333.15 K	983.12	0.466
343.15 K	977.77	0.4049

O [water]
[1]
Conditions	mass density [kg/m3]	viscosity [mPa·s]
298.15 K	–	0.89
303.15 K	–	0.7976
313.15 K	–	0.6531
323.15 K	988.04	0.547
333.15 K	983.12	0.466
343.15 K	977.77	0.4049
